This note sets out measurements from PubChem BioAssay (NCI).

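Results reflect a 48-hour exposure of cells in 96-well plates to compound at five concentrations. At the TGI there is no net growth.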

The test system of the first assay is OVCAR-5 ovarian. In words: NCI tumour cell line growth inhibition, 48 h.
On to `C=CCCC(=O)CC(O)(C(F)(F)F)C(F)(F)F`, for which the TGI is > 100 µM.

On to `CC(=O)c1ccc2c3c1[C@@H]1O[C@@H]1c1cccc(c1-3)[C@@H]1O[C@H]21`, for which the TGI came to 34.7 µM.

With `CCN1C(=O)C(=C/C=C/c2ccc([N+](=O)[O-])cc2)C(=O)N(CC)C1=S`, the TGI was > 100 µM.

Another assay concerns UO-31 renal. Briefly: NCI tumour cell line growth inhibition, 48 h.
Regarding `Nc1c(Cl)ncnc1N[C@@H]1C[C@H]1CO`, the TGI was > 100 µM.

In the case of `C=CCCC(=O)CC(O)(C(F)(F)F)C(F)(F)F`, the TGI is > 100 µM.

As for `CC(=O)c1ccc2c3c1[C@@H]1O[C@@H]1c1cccc(c1-3)[C@@H]1O[C@H]21`, the TGI worked out at 30.2 µM.

The compound `CCN1C(=O)C(=C/C=C/c2ccc([N+](=O)[O-])cc2)C(=O)N(CC)C1=S` gave a TGI of 37.2 µM.

Another assay concerns ACHN renal. In words: NCI tumour cell line growth inhibition, 48 h.
For `Nc1c(Cl)ncnc1N[C@@H]1C[C@H]1CO`, the TGI was > 100 µM.

`C=CCCC(=O)CC(O)(C(F)(F)F)C(F)(F)F`: the TGI was > 100 µM.

Take `CC(=O)c1ccc2c3c1[C@@H]1O[C@@H]1c1cccc(c1-3)[C@@H]1O[C@H]21`: the TGI was determined as 37.4 µM.

In the case of `CCN1C(=O)C(=C/C=C/c2ccc([N+](=O)[O-])cc2)C(=O)N(CC)C1=S`, the TGI is 32.1 µM.

A further assay relates to SN12C renal. In words: NCI tumour cell line growth inhibition, 48 h.
`Nc1c(Cl)ncnc1N[C@@H]1C[C@H]1CO`: the TGI is > 100 µM.

Turning to `CC(=O)c1ccc2c3c1[C@@H]1O[C@@H]1c1cccc(c1-3)[C@@H]1O[C@H]21`, the TGI was 23.9 µM.

In turn, `CCN1C(=O)C(=C/C=C/c2ccc([N+](=O)[O-])cc2)C(=O)N(CC)C1=S` displayed a TGI of 57.3 µM.

Another assay concerns HT29 colon. Briefly: NCI tumour cell line growth inhibition, 48 h.
`Nc1c(Cl)ncnc1N[C@@H]1C[C@H]1CO`: the TGI was > 100 µM.

As for `C=CCCC(=O)CC(O)(C(F)(F)F)C(F)(F)F`, the TGI is > 100 µM.

Consider `CC(=O)c1ccc2c3c1[C@@H]1O[C@@H]1c1cccc(c1-3)[C@@H]1O[C@H]21`, for which the TGI was > 27.9 µM.

`CCN1C(=O)C(=C/C=C/c2ccc([N+](=O)[O-])cc2)C(=O)N(CC)C1=S` gave a TGI of 50.7 µM.

For a further assay, the system named is HOP-62 NSCLC. Briefly: NCI tumour cell line growth inhibition, 48 h.
For `Nc1c(Cl)ncnc1N[C@@H]1C[C@H]1CO`, the TGI was > 100 µM.

Turning to `CC(=O)c1ccc2c3c1[C@@H]1O[C@@H]1c1cccc(c1-3)[C@@H]1O[C@H]21`, the TGI amounted to 36.6 µM.

For the compound `CCN1C(=O)C(=C/C=C/c2ccc([N+](=O)[O-])cc2)C(=O)N(CC)C1=S`, the TGI stood at 39.2 µM.

A further assay concerns MCF7 breast. Briefly: NCI tumour cell line growth inhibition, 48 h.
For the compound `Nc1c(Cl)ncnc1N[C@@H]1C[C@H]1CO`, the TGI is > 100 µM.

Regarding `C=CCCC(=O)CC(O)(C(F)(F)F)C(F)(F)F`, the TGI is > 100 µM.

Regarding `CC(=O)c1ccc2c3c1[C@@H]1O[C@@H]1c1cccc(c1-3)[C@@H]1O[C@H]21`, the TGI is > 40.1 µM.

`CCN1C(=O)C(=C/C=C/c2ccc([N+](=O)[O-])cc2)C(=O)N(CC)C1=S` gave a TGI of 52.5 µM.

For the next assay, the system named is SNB-19 CNS. Briefly: NCI tumour cell line growth inhibition, 48 h.
In the case of `Nc1c(Cl)ncnc1N[C@@H]1C[C@H]1CO`, the TGI is > 100 µM.

`C=CCCC(=O)CC(O)(C(F)(F)F)C(F)(F)F`: the TGI was > 100 µM.

For the compound `CC(=O)c1ccc2c3c1[C@@H]1O[C@@H]1c1cccc(c1-3)[C@@H]1O[C@H]21`, the TGI is > 60.9 µM.

Regarding `CCN1C(=O)C(=C/C=C/c2ccc([N+](=O)[O-])cc2)C(=O)N(CC)C1=S`, the TGI is > 100 µM.

Another assay relates to BT-549 breast. In words: NCI tumour cell line growth inhibition, 48 h.
Turning to `Nc1c(Cl)ncnc1N[C@@H]1C[C@H]1CO`, the TGI was > 100 µM.

For `C=CCCC(=O)CC(O)(C(F)(F)F)C(F)(F)F`, the TGI was > 100 µM.

Compound `CC(=O)c1ccc2c3c1[C@@H]1O[C@@H]1c1cccc(c1-3)[C@@H]1O[C@H]21` gave a TGI of 35.1 µM.

Consider `CCN1C(=O)C(=C/C=C/c2ccc([N+](=O)[O-])cc2)C(=O)N(CC)C1=S`, for which the TGI came out at 32.5 µM.

The test system of a further assay is NCI-H460 lung. In words: NCI tumour cell line growth inhibition, 48 h.
Take `Nc1c(Cl)ncnc1N[C@@H]1C[C@H]1CO`: the TGI is > 100 µM.

With `C=CCCC(=O)CC(O)(C(F)(F)F)C(F)(F)F`, the TGI is > 100 µM.

Regarding `CCN1C(=O)C(=C/C=C/c2ccc([N+](=O)[O-])cc2)C(=O)N(CC)C1=S`, the TGI was > 100 µM.

For the next assay, the system named is UACC-257 melanoma. In words: NCI tumour cell line growth inhibition, 48 h.
With `Nc1c(Cl)ncnc1N[C@@H]1C[C@H]1CO`, the TGI is > 100 µM.

Take `C=CCCC(=O)CC(O)(C(F)(F)F)C(F)(F)F`: the TGI is > 100 µM.

As to `CC(=O)c1ccc2c3c1[C@@H]1O[C@@H]1c1cccc(c1-3)[C@@H]1O[C@H]21`, the TGI was > 60.2 µM.

As to `CCN1C(=O)C(=C/C=C/c2ccc([N+](=O)[O-])cc2)C(=O)N(CC)C1=S`, the TGI stood at 32.2 µM.

In another assay the test system is PC-3 prostate. In words: NCI tumour cell line growth inhibition, 48 h.
As for `Nc1c(Cl)ncnc1N[C@@H]1C[C@H]1CO`, the TGI was > 100 µM.

`C=CCCC(=O)CC(O)(C(F)(F)F)C(F)(F)F`: the TGI is > 100 µM.

As for `CC(=O)c1ccc2c3c1[C@@H]1O[C@@H]1c1cccc(c1-3)[C@@H]1O[C@H]21`, the TGI is > 52.3 µM.

`CCN1C(=O)C(=C/C=C/c2ccc([N+](=O)[O-])cc2)C(=O)N(CC)C1=S` registered a TGI of 34.6 µM.

The subject of another assay is OVCAR-3 ovarian. Briefly: NCI tumour cell line growth inhibition, 48 h.
Regarding `Nc1c(Cl)ncnc1N[C@@H]1C[C@H]1CO`, the TGI was > 100 µM.

In the case of `C=CCCC(=O)CC(O)(C(F)(F)F)C(F)(F)F`, the TGI is > 100 µM.

Compound `CC(=O)c1ccc2c3c1[C@@H]1O[C@@H]1c1cccc(c1-3)[C@@H]1O[C@H]21` showed a TGI of 30.4 µM.

The compound `CCN1C(=O)C(=C/C=C/c2ccc([N+](=O)[O-])cc2)C(=O)N(CC)C1=S` registered a TGI of 32.9 µM.

Another assay has as its system HCT-15 colon. Briefly: NCI tumour cell line growth inhibition, 48 h.
On to `Nc1c(Cl)ncnc1N[C@@H]1C[C@H]1CO`, for which the TGI was > 100 µM.

With `C=CCCC(=O)CC(O)(C(F)(F)F)C(F)(F)F`, the TGI was > 100 µM.

On to `CC(=O)c1ccc2c3c1[C@@H]1O[C@@H]1c1cccc(c1-3)[C@@H]1O[C@H]21`, for which the TGI is 12.5 µM.

For `CCN1C(=O)C(=C/C=C/c2ccc([N+](=O)[O-])cc2)C(=O)N(CC)C1=S`, the TGI was > 100 µM.

For the next assay, the system named is HCT-116 colon. In words: NCI tumour cell line growth inhibition, 48 h.
Regarding `Nc1c(Cl)ncnc1N[C@@H]1C[C@H]1CO`, the TGI is > 100 µM.

Consider `C=CCCC(=O)CC(O)(C(F)(F)F)C(F)(F)F`, for which the TGI is > 100 µM.

Consider `CC(=O)c1ccc2c3c1[C@@H]1O[C@@H]1c1cccc(c1-3)[C@@H]1O[C@H]21`, for which the TGI stood at 13.9 µM.

`CCN1C(=O)C(=C/C=C/c2ccc([N+](=O)[O-])cc2)C(=O)N(CC)C1=S` yielded a TGI of 31.9 µM.
